This test in a line: Antagonist activity at human CCR1 in THP1 cells assessed as inhibition of MIP-1-alpha-induced chemotaxis after 3 hrs.
By IC50 is commonly meant the midpoint of a concentration-inhibition curve. As to `COc1ccc(NC(=O)N2CCC[C@@H]2C(=O)N(C)Cc2ccc(Cl)cc2)cc1` [(R)-N2-(4-Chlorobenzyl)-N1-(4-methoxyphenyl)-N2-methylpyrrolidine-1,2-dicarboxamide], the IC50 worked out at 440 nM.
For `CN(Cc1ccc(Cl)cc1)C(=O)[C@H]1CCCN1C(=O)Nc1ccc(C(F)(F)F)cc1Cl` [(R)-N2-(4-Chlorobenzyl)-N1-[2-chloro-4-(trifluoromethyl)phenyl]-N2-methylpyrrolidine-1,2-dicarboxamide] the value was 35 nM; for `Cc1cc(C(F)(F)F)ccc1NC(=O)N1CCC[C@@H]1C(=O)N(C)Cc1ccc(Cl)cc1` [(R)-N2-(4-Chlorobenzyl)-N2-methyl-N1-[2-methyl-4-(trifluoromethyl)phenyl]pyrrolidine-1,2-dicarboxamide], 16 nM.
In the case of `Cc1cc(C(F)(F)F)cc(C)c1NC(=O)N1CCC[C@@H]1C(=O)N(C)Cc1ccc(Cl)cc1` [(R)-N2-(4-Chlorobenzyl)-N1-[2,6-dimethyl-4-(trifluoromethyl)phenyl]-N2-methylpyrrolidine-1,2-dicarboxamide] it was 6 nM.

(Values after BindingDB's records for doi:10.1021/jm801416q (Pharmacopeia, 2010).)
